Key:
[1] = Measurement of mRNA encapsulation in lipid nanoparticles (Quant-iT Ribogreen); format: physicochemical; conditions: Leptin mRNA in LNP
Description: All equipment and disposable supplies are certified free of RNase activity by the manufacturer or rendered RNase free by use of the RNaseZap reagent (LifeTechnologies). mRNA is encapsulated at a cationic lipid amine to mRNA phosphate (N:P) molar ratio of 4:1. Lipids (cationic lipid, DSPC, cholesterol and lipidated PEG or stealth lipid) are dissolved in ethanol. The molar ratios are 40:10:38:2, respectively. The mixture is sonicated briefly, then gently agitated for 5 minutes and then maintained at 37° C. until use. mRNA is exchanged into citrate buffer pH 5.8-6.0 by use of Amicon Ultra-15 centrifugal concentrators, and the final concentration is adjusted to 0.5 mg/ml and held at 37° C. until use. An equal volume of lipids in ethanol, mRNA in citrate buffer, and citrate buffer alone are drawn into disposable syringes.
Tubing leading from syringes containing lipids and mRNA are attached to the T junction, and tubing leading from the syringe containing citrate buffer alone is paired with the tubing exiting the T-junction over a collection vessel containing a stir bar on an active stir plate. Syringes are placed in a syringe pump set to expel contents at a flow rate of 1 ml per minute. The pump is activated, and the collected mRNA in lipid nanoparticles is transferred to SnakeSkin dialysis tubing (10,000 MWCO, Thermo Scientific). Material is dialyzed against RNAse- and pyrogen-free 1× phosphate buffered saline overnight at 4° C.
Percent encapsulation of mRNA in lipid nanoparticles is determined using the Quant-iT Ribogreen RNA Assay kit (Life Technologies). The LNP-mRNA suspension is assayed in buffer (mRNA outside the particle), and buffer plus Triton X-100 detergent (total mRNA). The difference calculated is the mRNA inside the particle. Prepare a 1000 ng/mL stock from the RNA provided in the kit and use this to generate a standard curve (0 ng/ml, 15.63-1000 ng/ml) in TE and TE+0.75% Triton X-100. Prepare LNP-mRNA samples in TE buffer and TE buffer+0.75% Triton X-100 with appropriate dilution so that reading is in the range of standard curve (400-2,000 fold). In a 384-well plate (Costar non-treated #3573) add 0.04 ml of standard (in duplicate) or sample (in triplicate) per well. Dilute Ribogreen reagent 240-fold in TE buffer and add 0.06 ml per well. Mix contents of wells and measure fluorescence (excitation=480 nm, emission=520 nm). Subtract background values (no RNA) from standard and test sample values and determine the concentrations of RNA in the samples using the standard curves. Determine the percent encapsulation of the sample by dividing the difference in concentrations between sample+triton and sample in buffer alone by the sample+triton concentration.

[2] = Particle size of the lipid nanoparticle (Z-average, dynamic light scattering, Malvern Zetasizer); format: physicochemical; conditions: RSV-F replicon RNA LNP, DLS; for Size 1st IM: 1st immunization; for Size 2nd IM: 2nd immunization
Text: The lipid nanoparticles have a size of about 1 to about 2,500 nm, about 10 to about 1,500 nm, about 20 to about 1,000 nm, in a sub-embodiment about 50 to about 600 nm, in a sub-embodiment about 50 to about 400 nm, in a sub-embodiment about 50 to about 250 nm, and in a sub-embodiment about 50 to about 150 nm. Unless indicated otherwise, all sizes referred to herein are the average sizes (diameters) of the fully formed nanoparticle, as measured by dynamic light scattering on a Malvern Zetasizer. The nanoparticle sample is diluted in phosphate buffered saline (PBS) so that the count rate is approximately 200-400 kcts. The data is presented as a weighted average of the intensity measure.
Unless indicated otherwise, all particle size measurements referred to in Table 3 are the Z-average particle size of the fully formed nanoparticle, as measured by dynamic light scattering on a Malvern Zetasizer. The nanoparticle sample was diluted in phosphate buffered saline (PBS) so that the count rate is approximately 200-400 kcts.
(§1) % entrapment (% E), Concentration of RNA (Conc), particle size measured by DLS, and polydispersity reported by DLS of LNPs prepared with different cationic lipids

[3] = Polydispersity index (PDI) by dynamic light scattering; format: physicochemical; conditions: RSV-F replicon RNA LNP, DLS; for PDI 1st IM: 1st immunization; for PDI 2nd IM: 2nd immunization
Description: Unless indicated otherwise, all PDIs referred to herein are the PDI of the fully formed nanoparticle, as measured by dynamic light scattering on a Malvern Zetasizer. The nanoparticle sample was diluted in phosphate buffered saline (PBS) so that the count rate was approximately 200-400 kcts. The data is presented in Table 3 as a weighted average of the intensity measure.
as §1

RSV F protein = assay: RSV immunogenicity: F-specific IgG titers after IM vaccination with liposome-formulated self-replicating RNA; format: in vivo; conditions: IM days 0 and 21, BALB/c mice, two weeks after two immunizations
[4] = Percentage of encapsulated RNA and RNA concentration of replicon liposomes (Quant-iT RiboGreen); format: physicochemical; conditions: for %E (% entrapment) 1st IM / Conc (Concentration of RNA) 1st IM: RSV-F replicon RNA LNP prepared for 1st immunization; for %E (% entrapment) 2nd IM / Conc (Concentration of RNA) 2nd IM: RSV-F replicon RNA LNP prepared for 2nd immunization
Description: RNA was encapsulated in liposomes made essentially by the method of Geall et al. (2012) PNAS vol. 109 (36): 14604-14609, Jeffs et al. (2005) Pharmaceutical Research 22 (3):362-372, and Maurer et al. (2001) Biophysical Journal, 80: 2310-2326 The liposomes were made of 10% DSPC (zwitterionic), 40% cationic lipid, 48% cholesterol and 2% PEG-conjugated DMG (2 kDa PEG). These proportions refer to the % moles in the total liposome.
Briefly, lipids were dissolved in ethanol (2 ml), a RNA replicon was dissolved in buffer (2 ml, 100 mM sodium citrate, pH 6) and these were mixed with 2 ml of buffer followed by 1 hour of equilibration. The mixture was then dialized overnight against 1×PBS. The resulting product contained liposomes, with ˜70-95% encapsulation efficiency. For in vitro and in vivo experiments formulations were diluted to the required RNA concentration with 1×PBS.
The percentage of encapsulated RNA and RNA concentration were determined by Quant-iT RiboGreen RNA reagent kit (Invitrogen), following manufacturer's instructions. The ribosomal RNA standard provided in the kit was used to generate a standard curve. Liposomes were diluted 10× or 100× in 1×TE buffer (from kit) before addition of the dye. Separately, liposomes were diluted 10× or 100× in 1×TE buffer containing 0.5% Triton X before addition of the dye (to disrupt the liposomes and thus to assay total RNA). Thereafter an equal amount of dye was added to each solution and then ˜180 μL of each solution after dye addition was loaded in duplicate into a 96 well tissue culture plate. The fluorescence (Ex 485 nm, Em 528 nm) was read on a microplate reader. All liposome formulations were dosed in vivo based on the encapsulated amount of RNA.
as §1

[5] = Measurement of siRNA encapsulation (SYBR Gold fluorescence); format: physicochemical; conditions: FVII siRNA in LNP
Description: The lipid nanoparticles (LNPs) were formed by mixing equal volumes of lipids dissolved in alcohol with siRNA dissolved in a citrate buffer by an impinging jet process. The lipid solution contains a cationic lipid compound of the invention, a helper lipid (cholesterol), an optional neutral lipid (DSPC) and a stealth lipid (S010, S024, S027, or S031) at a concentration of 8-16 mg/mL with a target of 12 mg/mL in an alcohol. The siRNA to total lipid ratio is approximately 0.05 (wt/wt). Where a LNP formulation contains four lipid components, the molar ratios of the lipids ranges from 20 to 70 mole percent for the cationic lipid with a target of 40-60, the mole percent of helper lipid ranges from 20 to 70 with a target of 30 to 50, the mole percent of neutral lipid ranges from 0-30, the mole percent of PEG lipid has a range from 1 to 6 with a target of 2 to 5. The concentration of siRNA solution ranges from 0.7 to 1.0 mg/mL with a target of 0.8 to 0.9 mg/mL in a sodium citrate: sodium chloride buffer pH 4-6, with a target of 4.5-5.5. The LNPs are formed by mixing equal volumes of lipid solution in ethanol with siRNA dissolved in a citrate buffer by an impinging jet process through a mixing device with ID ranging from 0.25 to 2.0 mm at a flow rate from 10 to 640 mL/min. The mixed LNP solution is held at room temperature for 0-24 hrs prior to a dilution step. The solution is then concentrated and diafiltered with suitable buffer by ultrafiltration process using membranes with a MW cutoff from 30 to 500 KD. The final product is sterile filtered and stored at 4° C.
SYBR Gold flourescence reagent is used for the determination of siRNA encapsulation in the DLP's. DLP's with and without triton x-100 are used to determine the free siRNA and total siRNA amounts. DLP's samples with and without triton X-100 were excited at 485 nm and flourescence emission is measured at 530 nm. Encapsulation efficiency is calculated based on the following formula: Encapsulation efficiency: [(free siRNA concentration−total siRNA concentration)/(total siRNA concentration)]×100% Encapsulation Data

| SMILES | % encapsulation mRNA Leptin [1] [%] | Size 1st IM [2] [nm] | Size 2nd IM [2] [nm] | PDI 1st IM [3] | PDI 2nd IM [3] | Immunogenicity (2wp2; log10 IgG titers) (RSV F protein; 0.1 ng replicon RNA) [log10 IgG titers] | Immunogenicity (2wp2; log10 IgG titers) (RSV F protein; 1 ng replicon RNA) [log10 IgG titers] | %E (% entrapment) 1st IM [4] [%] | Conc (Concentration of RNA) 1st IM [4] [ng/mL] | %E (% entrapment) 2nd IM [4] [%] | Conc (Concentration of RNA) 2nd IM [4] [ng/mL] | % encapsulation siRNA FVII [5] [%] |
| --- | --- | --- | --- | --- | --- | --- | --- | --- | --- | --- | --- | --- |
| CCCCC/C=C\C/C=C\CCCCCCCC(=O)OCC(COC(=O)CCC(OCCCCCCCC)OCCCCCCCC)COC(=O)C1CCN(CC2CC2)CC1 (centres unmarked) [Example 34, 3-((4,4-bis(octyloxy)butanoyl)oxy)-2-(((9Z,12Z)-octadeca-9,12-dienoyloxy)methyl)propyl 1-(cyclopropylmethyl)piperidine-4-carboxylate] | 97.1 | 136.2 | 135.4 | 0.116 | 0.11 | 3.73 | 4.36 | 75.5 | 9240 | 79.19 | 11495 |  |
| CCCCC/C=C\C/C=C\CCCCCCCC(=O)OCC(COC(=O)CCC(OCCCCCCCC)OCCCCCCCC)COC(=O)C1CCN(C)C1 (centres unmarked) [Example 35, 3-((4,4-bis(octyloxy)butanoyl)oxy)-2-(((9Z,12Z)-octadeca-9,12-dienoyloxy)methyl)propyl 1-methylpyrrolidine-3-carboxylate] | 97.3 | 135.2 | 137.5 | 0.119 | 0.108 | 4.53 | 4.86 | 93.46 | 10059 | 93.9 | 9937 |  |
| CCCCC/C=C\C/C=C\CCCCCCCC(=O)OCC(COC(=O)CC(CCCCCCCC)CCCCCCCC)COC(=O)OCCCN(CC)CC (centres unmarked) [Example 22, (9Z,12Z)-3-(((3-(diethylamino)propoxy)carbonyl)oxy)-2-(((3-octylundecanoyl)oxy)methyl)propyl octadeca-9,12-dienoate] |  |  |  |  |  |  |  |  |  |  |  | 86.1 |
| CCCCC/C=C\C/C=C\CCCCCCCC(=O)OCC(COC(=O)CCC(OCCCCCCCC)OCCCCCCCC)COC(=O)C1(C)CCN(C)CC1 (centres unmarked) [Example 40, 3-((4,4-bis(octyloxy)butanoyl)oxy)-2-(((9Z,12Z)-octadeca-9,12-dienoyloxy)methyl)propyl 1,4-dimethylpiperidine-4-carboxylate] | 97.2 | 141 | 137.3 | 0.122 | 0.118 | 4.31 | 4.74 | 71.1 | 9461 | 78.05 | 9650 |  |
| CCCCC/C=C\C/C=C\CCCCCCCC(=O)OCC(COC(=O)CCC(OCCCCCCCC)OCCCCCCCC)COC(=O)OC1CCN(C)CC1 (centres unmarked) [Example 48, (9Z,12Z)-3-((4,4-bis(octyloxy)butanoyl)oxy)-2-(((((1-methylpiperidin-4-yl)oxy)carbonyl)oxy)methyl)propyl octadeca-9,12-dienoate] | 92.8 | 137.9 | 134.2 | 0.091 | 0.075 | 4.58 | 5.02 | 86.169 | 9841 | 85.6 | 9665 |  |
| CCCCC/C=C\C/C=C\CCCCCCCC(=O)OCC(COC(=O)CCC(OCCCCCCCC)OCCCCCCCC)COC(=O)CCN(C)C (centres unmarked) [Example 32, (9Z,12Z)-3-((4,4-bis(octyloxy)butanoyl)oxy)-2-(((3-(dimethylamino)propanoyl)oxy)methyl)propyl octadeca-9,12-dienoate] | 97.1 | 136.2 | 135 | 0.147 | 0.088 | 4.77 | 4.92 | 92.6 | 8810 | 94.72 | 9653 |  |
